Values quoted from earlier work in patent US20160367580A1, “IMPROVED EXTENDED-ACTION TILMICOSIN AND USE THEREOF IN TREATMENT OF BOVINE RESPIRATORY DISEASE COMPLEX (BRD) AND IN DRY COW PERIOD” (UNIVERSIDAD NACIONAL AUTONOMA DE MEXICO, priority 2014, published 2016).

Assays:
[1] = test system: Staphylococcus aureus; settings: most of Staphylococcus aureus
[2] = in vivo

For `CC[C@H]1OC(=O)C[C@@H](O)[C@H](C)[C@@H](O[C@@H]2O[C@H](C)[C@@H](O)[C@H](N(C)C)[C@H]2O)[C@@H](CCN2C[C@H](C)C[C@H](C)C2)C[C@@H](C)C(=O)/C=C/C(C)=C/[C@@H]1CO[C@@H]1O[C@H](C)[C@@H](O)[C@@H](OC)[C@H]1OC` [tilmicosin], which CMI value [1] is on record?
Its CMI value is less than 1.0 µg/mL.

And the “plasma concentration not to be exceeded (cardiotoxicity with tachycardia)” value [2]?
Its value is no more than 4 µg/mL.
